Laboratory results reported in patent US4720495A, “Benzo[ij]quinolizine-2-carboxylic acids useful for treating bacterial infection” (priority 1985, dated 1988).
In brackets after ≈: the same amount, converted by molar mass.

Tests used:
[1] = test system: Bacillus subtilis ATCC 6633; assay: minimal inhibitory concentration, in vitro antibacterial activity; assay type: cell-based; conditions: ATCC6633, 37° C., 20 hours
Description: (§1) The in vitro antibacterial activities of typical examples of the present compounds [I] were evaluated in terms of the minimal inhibitory concentration defined as the lowest concentration of the compound preventing the bacterial growth. The Gram-positive bacteria used as test microorganisms included Bacillus subtilis, Staphylococcus aureus and Streptococcus faecalis, and the Gram-negative bacteria used as test microorganisms included Escherichia coli, Enterobacter cloacae, Klebsiella pneumoniae, Proteus vulgaris, Pseudomonas aeruginosa, Serratia marcescens and Salmonella enteritidis. The minimal inhibitory concentration (cultured at 37° C. for 20 hours) was determined according to the standard method prescribed by the Japan Society of Chemotherapy (CHEMOTHERAPY, Vol. 29, No. 1, p. 76, 1981). The following compounds were used as typical examples of the present compounds [I]. At the end of the chemical name of each compound, its tentative designation is given in Parentheses.
(§2) For purposes of comparison, the in vitro antibacterial activities of ofloxacin, OPC-7241 and compound α were evaluated according to the same method as described above and the test results thus obtained are also shown in Table 1.

Enterobacter cloacae 963 = assay: as above; assay type: cell-based; conditions: 37° C., 20 hours
Description: as §1, §2

Escherichia coli CI-304 [2] = assay: as above; assay type: cell-based; conditions: CI304, 37° C., 20 hours
Description: as §1, §2

[3] = test system: Escherichia coli NIHJ JC-2; assay: as above; assay type: cell-based; conditions: NIHJJC2, 37° C., 20 hours
Description: as §1, §2

[4] = test system: Klebsiella pneumoniae PCI 602; assay: as above; assay type: cell-based; conditions: PCI602, 37° C., 20 hours
Description: as §1, §2

[5] = test system: Proteus vulgaris ATCC 13315; assay: as above; assay type: cell-based; conditions: ATCC13315, 37° C., 20 hours
Description: as §1, §2

[6] = test system: Pseudomonas aeruginosa NCTC 10490; assay: as above; assay type: cell-based; conditions: NCTC10490, 37° C., 20 hours
Description: as §1, §2

[7] = test system: Salmonella enteritidis G14; assay: as above; assay type: cell-based; conditions: Salmonella enterica, 37° C., 20 hours
Description: as §1, §2

[8] = test system: Serratia marcescens IAM 1184; assay: as above; assay type: cell-based; conditions: IAM1184, 37° C., 20 hours
Description: as §1, §2

[9] = test system: Staphylococcus aureus FDA 209P JC-1; assay: as above; assay type: cell-based; conditions: FDA209P, 37° C., 20 hours
Description: as §1, §2

[10] = test system: Streptococcus faecalis AHU 1085; assay: as above; assay type: cell-based; conditions: Enterococcus faecalis, AHU1085, 37° C., 20 hours
Description: as §1, §2

[11] = enteral absorbability, serum concentration after oral administration to mice; assay type: in vivo; conditions: mouse, 50 mg/kg orally, fasted male ICR mice; for concentration at 0.5 h: 30 min.
Description: Using male ICR mice fasted overnight (weighing 20±1 g), the enteral absorbability of some typical examples of the present compounds [I] was tested. This test was carried out by administering 50 mg/kg of each test compound orally to mice and determining its serum concentration 30 minutes, 1 hour, 2 hours and 4 hours after administration. Five mice were used for each test point. At each test point, whole blood was collected from the mice by cardiac puncture and used to prepare serum samples. Concentrations of the test compounds in serum samples were determined by the paper disc method using Escherichia coli CI-304 as the test microorganism.
For purposes of comparison, the enteral absorbability of ofloxacin and OPC-7241 was tested in the same manner as described above and the results thus obtained are also shown in Table 2.

Escherichia coli CI-304 [12] = assay: therapeutic effect on experimentally induced infection in mice; assay type: in vivo, Escherichia coli CI-304 in male ddY strain mice; conditions: CI304, po, 168 h, orally, one hour after inoculation, survival after 7 days
Description: Using male ddY strain mice infected with Escherichia coli CI-304 (in groups of five; weighing 20±1 g), the therapeutic effect of some typical examples of the present compounds [I] was tested. The therapeutic effect was evaluated by administering each test compound orally to infected mice and calculating ED50 from the number of mice surviving after the lapse of 7 days. Infected mice were prepared by suspending cells of the aforesaid Escherichia coli strain in a 5% mucin solution and injecting this suspension into the peritoneal cavity of mice. The dose of the bacterial cells was ten times the minimal lethal dose which had previously been determined by a preliminary test. One hour after inoculation of the bacterial cells, each test compound was administered orally to the mice.
For purposes of comparison, ofloxacin and OPC-7241 were tested in the same manner as described above and the results thus obtained are also shown in Table 3.

Row | MIC [1] | MIC (Enterobacter cloacae 963) | MIC (Escherichia coli CI-304 [2]) | MIC [3] | MIC [4] | MIC [5] | MIC [6] | MIC [7] | MIC [8] | MIC [9] | MIC [10] | concentration at 0.5 h [11] | concentration at 1 h [11] | concentration at 2 h [11] | concentration at 4 h [11] | Compound | ED50 (Escherichia coli CI-304 [12])
1 | 0.2 µg/mL (≈ 0.536 µM) | 0.2 µg/mL (≈ 0.536 µM) | 0.1 µg/mL (≈ 0.268 µM) | 0.2 µg/mL (≈ 0.536 µM) | 0.1 µg/mL (≈ 0.268 µM) | 0.2 µg/mL (≈ 0.536 µM) | 0.78 µg/mL (≈ 2.09 µM) | 0.78 µg/mL (≈ 2.09 µM) | 1.56 µg/mL (≈ 4.18 µM) | 0.2 µg/mL (≈ 0.536 µM) | 0.78 µg/mL (≈ 2.09 µM) | 16400 ng/mL | 13600 ng/mL | 8100 ng/mL | 4800 ng/mL | CC1CN(c2c(F)cc3c(=O)c(C(=O)O)cn4c3c2C(=O)CC4C)CCN1 (stereo not drawn) [Compound 16, 9-fluoro-5-methyl-8-(3-methyl-1-piperazinyl)-6,7-dihydro-1,7-dioxo-1H, 5H-benzo[ij]quinolizine-2-carboxylic acid] | 0.71 mg/kg
2 | 0.2 µg/mL (≈ 0.535 µM) | 0.2 µg/mL (≈ 0.535 µM) | 0.2 µg/mL (≈ 0.535 µM) | 0.1 µg/mL (≈ 0.267 µM) | 0.1 µg/mL (≈ 0.267 µM) | 0.1 µg/mL (≈ 0.267 µM) | 1.56 µg/mL (≈ 4.17 µM) | 1.56 µg/mL (≈ 4.17 µM) | 1.56 µg/mL (≈ 4.17 µM) | 0.2 µg/mL (≈ 0.535 µM) | 0.78 µg/mL (≈ 2.09 µM) | 13800 ng/mL | 12700 ng/mL | 8400 ng/mL | 5000 ng/mL | CC1CN(c2c(Cl)cc3c(=O)c(C(=O)O)cn4c3c2C=CC4C)CCN1 (stereo not drawn) [Compound 31, 9-Chloro-5-methyl-8-(3-methyl-1-piperazinyl) -1-oxo-1H, 5H-benzo[ij]quinolizine-2-carboxylic acid] | –
3 | 0.1 µg/mL | 0.2 µg/mL | 0.1 µg/mL | 0.2 µg/mL | 0.1 µg/mL | 0.2 µg/mL | 0.78 µg/mL | 0.78 µg/mL | 1.56 µg/mL | 0.39 µg/mL | 0.78 µg/mL | 24500 ng/mL | 22000 ng/mL | 11800 ng/mL | 8500 ng/mL | CC1CC(=O)c2c(N3CCN(C)CC3)c(F)cc3c(=O)c(C(=O)O)cn1c23.Cl.O (stereo not drawn) [Compound 35, 9-Fluoro-5-methyl-8-(4-methyl-1-piperazinyl) -6,7-dihydro-1,7-dioxo-1H, 5H-benzo[ij]quinolizine-2-carboxylic acid hydrochloride monohydrate] | –
4 | 0.1 µg/mL (≈ 0.278 µM) | 0.78 µg/mL (≈ 2.17 µM) | 0.2 µg/mL (≈ 0.556 µM) | 0.39 µg/mL (≈ 1.09 µM) | 0.1 µg/mL (≈ 0.278 µM) | 0.1 µg/mL (≈ 0.278 µM) | 3.13 µg/mL (≈ 8.71 µM) | 0.78 µg/mL (≈ 2.17 µM) | 1.56 µg/mL (≈ 4.34 µM) | 0.39 µg/mL (≈ 1.09 µM) | 0.78 µg/mL (≈ 2.17 µM) | 9300 ng/mL | 7800 ng/mL | 4100 ng/mL | 2200 ng/mL | CC1CCc2c(N3CCN(C)CC3)c(F)cc3c(=O)c(C(=O)O)cn1c23 (stereo not drawn) [OPC-7241, 9-fluoro-6,7-dihydro-5-methyl-8-(4-methyl-1-piperazinyl)-1-oxo-1H, 5H-benzo[ij]quinolizine-2-carboxylic acid, reference compound] | 1.7 mg/kg
5 | 0.1 µg/mL | 0.2 µg/mL | 0.1 µg/mL | 0.2 µg/mL | 0.1 µg/mL | 0.1 µg/mL | 1.56 µg/mL | 0.78 µg/mL | 1.56 µg/mL | 0.78 µg/mL | 0.78 µg/mL | 26700 ng/mL | 24100 ng/mL | 13500 ng/mL | 9000 ng/mL | CC1CN(c2c(F)cc3c(=O)c(C(=O)O)cn4c3c2C(=O)CC4C)CCN1C.Cl.O (stereo not drawn) [Compound 38, 9-fluoro-5-methyl-8-(3,4-dimethyl-1-piperazinyl)-6,7-dihydro-1,7-dioxo-1H,5H-benzo[ij]quinolizine-2-carboxylic acid hydrochloride monohydrate] | –
6 | 0.2 µg/mL | 0.39 µg/mL | 0.2 µg/mL | 0.39 µg/mL | 0.1 µg/mL | 0.2 µg/mL | 3.13 µg/mL | 0.78 µg/mL | 1.56 µg/mL | 0.39 µg/mL | 0.78 µg/mL | – | – | – | – | CC1CN(c2c(F)cc3c(=O)c(C(=O)O)cn4c3c2C(=O)CC4C)CC(C)N1C.Cl.O (stereo not drawn) [Compound 39, 9-Fluoro-5-methyl-8-(3,4,5-trimethyl-1-piperazinyl) -6,7-dihydro-1,7-dioxo-1H, 5H-benzo[ij]quinolizine-2-carboxylic acid hydrochloride monohydrate] | –
7 | 0.2 µg/mL (≈ 0.56 µM) | 0.2 µg/mL (≈ 0.56 µM) | 0.1 µg/mL (≈ 0.28 µM) | 0.1 µg/mL (≈ 0.28 µM) | 0.1 µg/mL (≈ 0.28 µM) | 0.1 µg/mL (≈ 0.28 µM) | 1.56 µg/mL (≈ 4.37 µM) | 0.78 µg/mL (≈ 2.18 µM) | 0.78 µg/mL (≈ 2.18 µM) | 0.2 µg/mL (≈ 0.56 µM) | 0.78 µg/mL (≈ 2.18 µM) | 15600 ng/mL | 14400 ng/mL | 9800 ng/mL | 4200 ng/mL | CC1CN(c2c(F)cc3c(=O)c(C(=O)O)cn4c3c2C=CC4C)CCN1 (stereo not drawn) [Compound 29, 9-Fluoro-5-methyl-8-(3-methyl-1-piperazinyl) -1-oxo-1H, 5H-benzo[ij]quinolizine-2-carboxylic acid] | 0.69 mg/kg
8 | 0.2 µg/mL (≈ 0.535 µM) | 0.2 µg/mL (≈ 0.535 µM) | 0.2 µg/mL (≈ 0.535 µM) | 0.39 µg/mL (≈ 1.04 µM) | 0.1 µg/mL (≈ 0.267 µM) | 0.1 µg/mL (≈ 0.267 µM) | 1.56 µg/mL (≈ 4.17 µM) | 1.56 µg/mL (≈ 4.17 µM) | 1.56 µg/mL (≈ 4.17 µM) | 0.2 µg/mL (≈ 0.535 µM) | 0.78 µg/mL (≈ 2.09 µM) | – | – | – | – | CC1C=Cc2c(N3CCN(C)CC3)c(Cl)cc3c(=O)c(C(=O)O)cn1c23 (stereo not drawn) [Compound 24, 9-Chloro-5-methyl-8-(4-methyl-1-piperazinyl)-1-oxo-1H,5H-benzo[ij]quinolizine-2-carboxylic acid] | –
9 | 0.2 µg/mL (≈ 0.495 µM) | 0.2 µg/mL (≈ 0.495 µM) | 0.1 µg/mL (≈ 0.248 µM) | 0.2 µg/mL (≈ 0.495 µM) | 0.1 µg/mL (≈ 0.248 µM) | 0.2 µg/mL (≈ 0.495 µM) | 0.78 µg/mL (≈ 1.93 µM) | 0.78 µg/mL (≈ 1.93 µM) | 3.13 µg/mL (≈ 7.75 µM) | 0.39 µg/mL (≈ 0.966 µM) | 1.56 µg/mL (≈ 3.86 µM) | 20200 ng/mL | 15900 ng/mL | 7700 ng/mL | 4500 ng/mL | CCN1CCN(c2c(Cl)cc3c(=O)c(C(=O)O)cn4c3c2C(=O)CC4C)CC1 (stereo not drawn) [Compound 9, 9-Chloro-5-methyl-8-(4-ethyl-1-piperazinyl) -6,7-dihydro-1,7-dioxo-1H, 5H-benzo[ij]quinolizine-2-carboxylic acid] | –
10 | 0.1 µg/mL (≈ 0.258 µM) | 0.2 µg/mL (≈ 0.516 µM) | 0.1 µg/mL (≈ 0.258 µM) | 0.2 µg/mL (≈ 0.516 µM) | 0.1 µg/mL (≈ 0.258 µM) | 0.39 µg/mL (≈ 1.01 µM) | 1.56 µg/mL (≈ 4.03 µM) | 0.78 µg/mL (≈ 2.01 µM) | 3.13 µg/mL (≈ 8.08 µM) | 0.78 µg/mL (≈ 2.01 µM) | 3.13 µg/mL (≈ 8.08 µM) | 20800 ng/mL | 15800 ng/mL | 7200 ng/mL | 5300 ng/mL | CC1CN(c2c(F)cc3c(=O)c(C(=O)O)cn4c3c2C(=O)CC4C)CC(C)N1 (stereo not drawn) [Compound 11, 9-Fluoro-5-methyl-8-(3,5-dimethyl-1-piperazinyl) -6,7-dihydro-1,7-dioxo-1H, 5H-benzo[ij]quinolizine-2-carboxylic acid] | –
11 | 0.1 µg/mL (≈ 0.257 µM) | 0.2 µg/mL (≈ 0.513 µM) | 0.1 µg/mL (≈ 0.257 µM) | 0.1 µg/mL (≈ 0.257 µM) | 0.1 µg/mL (≈ 0.257 µM) | 0.1 µg/mL (≈ 0.257 µM) | 0.78 µg/mL (≈ 2 µM) | 0.78 µg/mL (≈ 2 µM) | 3.13 µg/mL (≈ 8.03 µM) | 0.39 µg/mL (≈ 1 µM) | 1.56 µg/mL (≈ 4 µM) | – | – | – | – | CC1CC(=O)c2c(N3CCN(C)CC3)c(Cl)cc3c(=O)c(C(=O)O)cn1c23 (stereo not drawn) [Compound 7, 9-Chloro-5-methyl-8-(4-methyl-1-piperazinyl)-6,7-dihydro-1,7-dioxo-1H, 5H-benzo[ij]quinolizine-2-carboxylic acid] | –
